Data set [1] is described as follows: tonus reduction on striated musculature. Format: in vivo, male NMRI mice. On the procedure: (§1) For the pharmacological investigations described in the following, there were used male NMRI mice with a weight of from 15 to 30 g. The animals were kept under usual laboratory conditions, randomised and subjected to a light-dark change with a 12 hour rhythm. They were given a standard feed and water ad libitum up to the commencement of the experiments.
(§2) The test compounds were administered in a volume of 10 ml./kg./body weight per mouse. As carrier, there was used physiological sodium chloride solution or a suspension of 0.5% tragacanth in physiological sodium chloride solution.
6. Tonus reduction on striated musculature.
The test used is described by J. P. Chambon et al. (Arzneimittelforschung (Drug Research), 35 (II), (10), 1572/1985).
5 animals per dosage group were placed with their front paws on a horizontal metal rod (diameter 3 mm., length 20 cm.) which was fixed 30 cm. above a laboratory bench. Mice with normal muscle tonus climbed within 5 seconds on to the rod with at least one rear paw.
40, 80 and 120 minutes after the subcutaneous administration of the test compound, the animals were again tested for this ability and the number of incapable animals was recorded.

Data set [2] is classed as in vivo, male NMRI mice. To be noted: ED50 p.o. / ED50 s.c. On the procedure: (§3) […]. They were given a standard feed and water ad libitum up to the commencement of the experiments.
as §2
(§4) The experimental results are given as average values with a mean error of the average value (x±S.E.M.). The ED50 values were calculated according to Litchfield and Wilcoxon (J. Pharmacol. Exp. Ther., 96, 99/1949). The compounds were thereby tested in 4 dosages (p≤0.5).
(§5) For the significance calculation, there was used Student's t test (see Angewandte Statistik, pub. Stringer Verlag, Berlin, Heidelberg, 242/1983), as well as the range sum test of Mann and Withney (Ann. Math. stat., 50, 1818/1947).
(§6) 1.1. In the acetic acid writhing test (see R. Koster et al., Fed. proc., 18, 412/1954), the typical stretching movements referred to as "writhing", were produced by the intraperitoneal administration of a 0.6% acetic acid solution. 30 minutes previously, the substance to be tested was administered subcutaneously (s.c.) or orally ([…].) to the animals. 3 minutes after administration of the acetic acid solution, the total number of stretching movements in a period of time of 10 minutes was ascertained. From the decrease of the stretching reactions due to the action of the test compound in comparison with non-pretreated control groups, there was determined the percentage inhibition action.

The next data set in a line: hot plate test. To be noted: Mus musculus, sc; plate 54° C.; 30 and 60 min; limits in brackets; read-out: ED50 (50% increase of the reaction time). Format: in vivo, male NMRI mice. On the procedure:
as §1, §2
The experimental results are given as average values with a mean error of the average value (x±S.E.M.). The ED50 values were calculated according to Litchfield and Wilcoxon (J. Pharmacol. Exp. Ther., 96, 99/1949). The compounds were thereby tested in 4 dosages ([…]). […]
30 and 60 minutes after the subcutaneous administration of the test compounds, the experimental animals were placed on a metal plate, the surface temperature of which was kept constant at 54° C. The time was measured up to the commencement of a pain reaction (standing on the rear paws with licking and rubbing togeth4er of the front paws or jumping). In a preceding test, the average reaction time of the animals was determined from three measurements at intervals of, in each case, 15 minutes. […]

The format of data set [3] is in vivo, male NMRI mice. To be noted: for % inhibition action ± SEM with naloxone: with naloxone hydrochloride 20 mg./kg. s.c.; for change in % (with vs without naloxone): given without sign. On the procedure:
They were given a standard feed and water ad libitum up to the commencement of the experiments.
as §2, §4, §5, §6
Naloxone-antagonistic action in the writhing test.
20 Minutes before the subcutaneous administration of the test compounds, the animals were given 20 mg./kg. naloxone hydrochloride subcutaneously. The further carrying out of the experiments was as described above.

Data set [4] is classed as in vivo, male NMRI mice. To be noted: s.c. increasing dosages over 2 days, naloxone i.p.; for % of reacting animals: 10 minutes. On the procedure:
as §3, §2
2. Development of dependency.
Withdrawal jumps of the mouse (see J. K. Saelens et al., Arch. Int. Pharmacodyn. Ther., 190, 213/1971).
Mice which were dependent upon morphine or other opiates react, when treated with morphine antagonists, with a flight reaction (see F. Huidobro and C. Maggiolo, Arch. Int. Pharmacodyn. Ther., 158, 97/1965); E. L. Way et al., Science, 162, 1290/1968). This flight reaction manifests itself in very vigorous jumping reactions which continue for about 10 minutes. From the number of reacting animals and especially from the jump frequency per animal, there can be deduced the strength of the withdrawal symptoms and thus the degree of dependency upon the test compound. Carrying out of the test:
The test and standard compounds were administered subcutaneously according to the scheme shown in the following Table III in increasing dosages over the course of 2 days.
For the provocation of the withdrawal jumps, the animals received intraperitoneally, 2 hours after the last compound administration, 30 mg./kg. naloxone hydrochloride.
Immediately after the administration of the naloxone, the animals were placed individually in a 5 liter glass beaker. Subsequently, the number of jump movements was recorded during the course of 10 minutes. For evaluation, the number of animals reacting the withdrawal jumps, as well as the average number of jumps per animal, was used.
The animals of the naloxone control group were, up to the administration of naloxone, treated with a 0.9% aqueous solution of sodium chloride (6 animals/dosage group).

Data set [5] can be described thus: testing for ataxia (rotating rod test). Format: in vivo, male NMRI mice. On the procedure: as §1, §2
There was used the rotating rod test (see F. Gross et al., Schweiz. Med. Wschr., 85, 305/1955).
5 animals per dosage group were trained to keep themselves on a horizontally rotating rod made of synthetic resin (16 rpm). 40, 80 and 120 minutes after the subcutaneous administration of the test compounds, the animals were again tested. From the number of animals which fell off prematurely, there was determined the disturbance of the movement coordination.

Where two headings read alike, the source gives them in different places.

On to `CC12CCNCC(C1)c1ccccc1O2` (stereo not drawn) [Example 6, 2,3,4,5,6,7-hexahydro-2-methyl-2,7-methano-1,5-benzoxazonine], for which the muscle-relaxing action in data set [1] (25 mg./kg. s.c.) came to 13%. Besides, the muscle-relaxing action in data set [1] (50 mg./kg. s.c.) amounted to 20%. Moreover, in data set [2], the “quotient p.o./s.c. (of ED50)” value stood at 1.65. Moreover, the ED50 in the data set “hot plate test” was 13.8 mg/kg. Also, in data set [3] (12.5 mg/kg s.c.), the “% inhibition action ± SEM with naloxone” value is 39.7 ± 10.4%, the “% inhibition action ± SEM without naloxone” value is 33.2 ± 3.2% and the “change in % (with vs without naloxone)” value was 6.5%. Also, in data set [3] (25 mg/kg s.c.), the “% inhibition action ± SEM with naloxone” value was 65.5 ± 6.5%, the “% inhibition action ± SEM without naloxone” value was determined as 58.9 ± 10.1% and the “change in % (with vs without naloxone)” value was 6.6%. In data set [3] (50 mg/kg s.c.), the “% inhibition action ± SEM with naloxone” value is recorded as 91.8 ± 3.3%, the “% inhibition action ± SEM without naloxone” value was 84.6 ± 7.7% and the “change in % (with vs without naloxone)” value came out at 7.2%. In data set [4], the “average number of jumps/animal/10 minutes” value is 0 and the “% of reacting animals” value turned out to be 0%. Moreover, in data set [5] (25 mg/kg s.c.), the “change of the maintenance time in % compared with the control group, after 40 min.” value stood at 0%; the “change of the maintenance time in % compared with the control group, after 80 min.” value was -8%; the “change of the maintenance time in % compared with the control group, after 120 min.” value turned out to be 0%. For the same compound, in data set [5] (50 mg/kg s.c.), the “change of the maintenance time in % compared with the control group, after 40 min.” value is reported as -17%; the “change of the maintenance time in % compared with the control group, after 80 min.” value worked out at 0%; the “change of the maintenance time in % compared with the control group, after 120 min.” value was -8%.
In data set [1] (25 mg./kg. s.c.), `CC1NCCC2(C)CC1c1ccccc1O2` (stereo not drawn) [Example 9, 2,3,4,5,6,7-hexahydro-2,6-dimethyl-2,7-methano-1,5-benzoxazonine] came in with a muscle-relaxing action of 13%. Further, the muscle-relaxing action in data set [1] (50 mg./kg. s.c.) came out at 20%. Further, in data set [2], the “quotient p.o./s.c. (of ED50)” value worked out at 1.45. The ED50 in the data set “hot plate test” turned out to be 12 mg/kg. In data set [3] (12.5 mg/kg s.c.), the “% inhibition action ± SEM with naloxone” value came out at 52.0 ± 1.5%, the “% inhibition action ± SEM without naloxone” value is on record as 57.0 ± 7.6% and the “change in % (with vs without naloxone)” value is given as 5.0%. For the same compound, in data set [3] (25 mg/kg s.c.), the “% inhibition action ± SEM with naloxone” value is on record as 80.1 ± 6.8%, the “% inhibition action ± SEM without naloxone” value is listed as 64.0 ± 5.0% and the “change in % (with vs without naloxone)” value is 16.1%. In addition, in data set [3] (50 mg/kg s.c.), the “% inhibition action ± SEM with naloxone” value turned out to be 88.4 ± 11.6%, the “% inhibition action ± SEM without naloxone” value was determined as 84.9 ± 2.7% and the “change in % (with vs without naloxone)” value was 3.5%. In addition, in data set [4], the “average number of jumps/animal/10 minutes” value was determined as 0 and the “% of reacting animals” value is 0%. Moreover, in data set [5] (25 mg/kg s.c.), the “change of the maintenance time in % compared with the control group, after 40 min.” value was -13%; the “change of the maintenance time in % compared with the control group, after 80 min.” value was -17%; the “change of the maintenance time in % compared with the control group, after 120 min.” value is reported as -12%. Besides, in data set [5] (50 mg/kg s.c.), the “change of the maintenance time in % compared with the control group, after 40 min.” value came to 0%; the “change of the maintenance time in % compared with the control group, after 80 min.” value worked out at 0%; the “change of the maintenance time in % compared with the control group, after 120 min.” value is reported as -2%.

The values are drawn from US4859664A, “Derivatives of 2,3,4,5,6,7-hexahydro-2,7-methano-1,5-benzoxazonines and -1,4-benzoxazonines, processes for their production and their use as pharmaceuticals” (priority 1986, dated 1989).
